Where a SMILES comes first, the peptide text is derived from it. [ ]: non-standard residue; d: D form. Hyp = O=C(O)[CH]1C[CH](O)CN1
Columns and labels:
[1] = tested on: bleomycin-induced pulmonary fibrosis; test: Idiopathic pulmonary fibrosis (IPF) model; format: in vivo, Sprague Dawley rats; set-up: lung coefficient: unit not given here
Description: Experimental animals and grouping: 40 adult male Sprague Dawley rats, after 7 days of adaptive feeding, were divided into 4 groups: sham-operation group (Sham), IPF model group (no treatment; Model), test group (Compound B) and positive control group (Positive Control).
The test were administered Compound B, at a dose of 130 μg/rat, which was introduced by aerosolized inhalation. Oral administration of pirfenidone (Etuary®, Beijing Continent Pharmaceutical Co., Ltd., Beijing, China) as a 120 mg/kg single-bolus dose served as the positive control.
A pulmonary fibrosis model was established by intratracheal instillation of bleomycin. The rats were anaesthetised and placed on an operating table in the supine position, to expose the trachea. Bleomycin (5 mg/kg) saline solution was injected into the trachea through the gap between the tracheal cartilage rings. The sham-operation group were given an equal volume of normal saline. Shortly after administration, the rats were lifted vertically and were rotated, in order to evenly disperse the drug. Once the rats had recovered, after approximately 5 days, they were administrated the different drugs according to the plan for 28 days, consecutively.
The exhaust volume of the atomizing device was 0.15 mL per minute. The inhalation time for each rat was 1 minute.
At Day 29 following drug administration, rats were anesthetized by i.p. injection of chloral hydrate. After orbital blood collection, the rats were sacrificed. The thoracic cavity was quickly opened and the lung was collected for further analysis. The lung wet weight was measured, and the lung coefficient was calculated (lung wet weight/rat weight×1000). The tissue was stored in refrigerator at −80° C. for further use.
A piece of lung tissue was accurately weighed, and 9 times the weight of saline was added. Then, the tissue was homogenized and centrifuged for 10 minutes at 3000 rpm. The homogenate was used to detect the expression of the transformation growth factor (TGF-β1), tumor necrosis factor-α (TNF-α) and alpha-smooth muscle actin (α-SMA). Standard ELISA methods were used for the detection. The contents of malonaldehyde (MDA) and the activity of superoxide dismutase (SOD) in lung tissue were also detected.

ammonia induced cough = test: Antitussive experiment, ammonia induced cough method; format: in vivo, ICR mice
Description: 36 ICR mice were randomly divided into 3 groups according to their body weight, labelled a CMC-Na (Negative) control group, a dextromethorphan hydrobromide (Positive) control group and a Compound B (B) group. Each group contained 12 mice, with 6 males and 6 females in each.
Compound B was administered via atomization inhalation using a YLS-8A Multifunctional cough and sputum inducing device (Jinan Yiyan Science and Technology Co., Ltd.) (0.15 ml/min) for 1 minute, once daily for 5 days. And the positive control drug was administered once daily by intragastric administration at 10 mg/kg for 5 days.
The mice were placed in an inverted beaker 1, 2, and 4 hours after the last drug administration. 1 mL of aqueous ammonia (25.0 to 28.0%) was placed on top of a boiling water bath and was evaporated into the beaker.
The time for mice to receive ammonia exposure was determined by a method characterized by analyzing data immediately after one test or a batch of tests. The results of the previous analysis determined how to conduct the next test or batch of tests.
The difference between the logarithmic value of two adjacent time periods was 0.1.
The number of coughs within 1 minute was detected using a stethoscope. If a mouse coughed three or more times over one minute, this was labelled as called ‘cough’, and less than three times in one minute was labelled ‘cough free’.
The EDT50 was defined as the ammonia stimulating time at which half mice developed a “cough”, calculated by the equation: […]
(c equals the sum of r and x, r is the number of animals in each stimulating time group, x is the logarithm of stimulation time and n was the number of animals in each group). lg is a base 10 logarithmic value.
In Table 15, R is the EDT50 in treatment group divided by the EDT50 in the Control group expressed as a percentage.

fever = test: Aerosol inhalation to treat fever; format: in vivo, human
Description: The same formulation as described in Example 14 above was administered to a subject who enrolled in the study having had got a fever (a body temperature over 38.5° C.) for 1 day. Other anti-fever medications were not used prior to treatment.
The subject was required to use the aerosol inhalation device in the morning and in the evening by pouring 3 mL of the formulation into an atomizer storage tank connected to an atomizer and a mask, which was worn over the mouth and nose.

[2] = tested on: operation pain during laser surgery; test: Liquid spray to relieve operational pain during laser surgery; format: in vivo, human
Description: The enrolled subject was required to use 1 mL of a liquid spray comprising the same formulation as that described in Example 14 above in a water spray bottle on half of their face before and after a lattice laser operation to remove of facial melanin.

[3] = lung tissue homogenate, Day 29, Compound B 130 μg/rat aerosolized inhalation, pirfenidone gavage, 28 days

Compound: CC(N)C(=O)NC(CCCCN)C(=O)N1CCCC1C(=O)NC(CO)C(=O)NC(Cc1ccc(O)cc1)C(=O)N1CC(O)CC1C(=O)N1CC(O)CC1C(=O)NC(C(=O)NC(Cc1ccc(O)cc1)C(=O)NC(CCCCN)C(=O)O)C(C)O (stereo not drawn) [Compound B, Ala-Lys-Pro-Ser-Tyr-Hyp-Hyp-Thr-Tyr-Lys] (H-AKPSY[Hyp][Hyp]TYK-OH; configuration not given here)
- inhibition of production of TNF-α, α-SMA and TGF-β1 in lung tissue ([1]; compared with pirfenidone): almost equivalent to that of the known IPF drug, pirfenidone
- TGF-β1 [1, 3]: 0.40 ± 0.02 ng/mg protein
- TNF-α [1, 3]: 187.91 ± 12.20 pg/mg protein
- α-SMA [1, 3]: 10.85 ± 1.42 pg/mg protein
- MDA ([1]; lung tissue, Day 29): 0.17 ± 0.04 U/mg protein
- SOD ([1]; lung tissue, Day 29): 48.64 ± 1.85 U/mg protein
- lung coefficient ([1]; lung wet weight/rat weight×1000, Day 29): 5.14 ± 0.37
- R (ammonia induced cough; 1 hour after admin., EDT50 in treatment group divided by EDT50 in Control group): 131.7%
- EDT50 (ammonia induced cough; 1 hour after last administration, B 195 μg/mouse atomization inhalation, Positive 10 mg/kg intragastric, once daily 5 days): 28.2 s
- R (ammonia induced cough; 2 hours after admin., EDT50 treatment/Control): 131.8%
- EDT50 (ammonia induced cough; 2 hours after last administration): 28.2 s
- R (ammonia induced cough; 4 hours after admin., EDT50 treatment/Control): 100 [???] %
- EDT50 (ammonia induced cough; 4 hours after last administration): 26.9 s
- effect on cough relief (ammonia induced cough; at 1 and 2 hours): positive effect on cough relief
- recurrence of fever symptoms (fever; 0.5 mg/mL aerosol inhalation, morning and evening): did not recur after 3 uses
- body temperature (fever; 0.5 mg/mL, 3 mL aerosol inhalation, subject with body temperature over 38.5° C.): within two hours, their body temperature had dropped to normal
- pain during lattice laser operation ([2]; 1 mL liquid spray 0.5 mg/mL on half of face before and after operation): did not feel pain during the operation
- pain after lattice laser operation ([2]; sprayed half of face, unsprayed half: pain lasted about 2 hours): felt no pain after the operation

From patent US20250041377A1, “PHARMACEUTICAL USE” (ENLITISA (SHANGHAI) PHARMACEUTICAL CO., LTD., priority 2018, published 2025)
